The term EC50 denotes the midpoint of the concentration-response curve. What is called IC50 is the concentration that gives 50% inhibition. The low end stands for inhibition by little substance, the high end for a need for much substance.

Data on 71 compounds can be found in PubChem BioAssay AID179 (DTP/NCI, 2004).

The test system of this assay is CEM cells HIV-1 protection, formazan growth assay. Put plainly: NCI AIDS Antiviral Assay. The conditions noted are these: for IC50: measured here: growth of uninfected CEM cells. The method, boiled down: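 Human CEM cells, uninfected and HIV-1-infected, received five drug concentrations, and growth was read by soluble formazan assay. Compounds giving at least 50% protection were retested; reproducible 100% protection defined confirmed active.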

Activity calls are given as the source filed them.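 Rule for the calls: active = compounds giving half or more protection of infected cells from virus-caused growth loss, again on retest; inactive = the rest.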

For the compound `CCCCCCCCCCCCCCCC(=O)Nc1nc(=O)n(C2CCC(COP(=O)(O)OCC3OC(n4cc(C)c(=O)[nH]c4=O)CC3N=[N+]=[N-])O2)cc1C` (stereo not drawn), the EC50 was 0.363 µM and the IC50 was found to be 115 µM. On to `CCc1cccc(NC(=O)c2cc(/C=C/c3ccccc3)[nH]c(=S)n2)c1`, for which the EC50 was above 347 µM and the IC50 was above 347 µM. For the compound `COC(=O)c1cc(C(c2cc(C(=O)OC)c(O)cc2C)C(Cl)Cl)c(C)cc1O`, the EC50 was above 91.2 µM and the IC50 was determined as 6.46 µM. `CCCN(CCc1ccc(-c2ccccc2)cc1)CCc1ccc2n[nH]nc2c1`: the EC50 is above 200 µM and the half-maximal inhibitory concentration (IC50) came to 10 µM. Turning to `O=C1CCCC2C3CC(CN12)C1CC(O)CCN1C3` (stereo not drawn), the EC50 is above 200 µM and the IC50 was above 200 µM. `C[C@@]12[C@H]3CC[C@@H]1[C@H](O)C(=O)N2CC3`: the EC50 is above 200 µM and the IC50 was above 200 µM. Consider `CCOC(=O)/C(C#N)=C/c1cccc(Cl)c1`, for which the EC50 was above 79.4 µM and the IC50 is above 79.4 µM. `C[P+]1(C)CCc2c1ccc1ccccc21`: the result was inactive. As for `SC[C@@H]1COC[C@H](CS)S1`, the EC50 was above 95.5 µM and the IC50 is above 95.5 µM. On to `Cn1nc(-c2ccccc2)c(C(=O)/C=C/c2ccccc2)c(N2CCCCC2)c1=O`, for which the EC50 is above 24 µM and the IC50 was above 24 µM. In the case of `CNc1[nH]c(=S)nc2sc3c(c12)CCCC3`, the EC50 is above 151 µM and the half-maximal inhibitory concentration (IC50) was determined as 112 µM. Take `COC1(OC)CC2C(=O)N(Cc3ccccc3)C1CC2S(=O)(=O)c1ccccc1` (stereo not drawn): the result was inactive.

For the compound `CCC1OC(=O)C(C)C(OC2CC(C)(O)C(O)C(C)O2)C(C)C(O)C(C)(O)CC(C)C(=O)C(C)C(O)C1C` (stereo not drawn), the EC50 was above 229 µM and the IC50 was determined as 21.4 µM. As for `CCOc1cccc2sc(N)nc12`, the result was inactive. With `CCCCn1c(=O)[nH]c2c(N)ncnc21`, the EC50 is above 200 µM and the half-maximal inhibitory concentration (IC50) was above 200 µM. As to `CCc1cc(CCC(=O)Nc2ccccc2[N+](=O)[O-])[nH]c(=S)n1`, the EC50 was above 759 µM and the IC50 is above 759 µM. As for `O=c1cn[nH]c2c(F)cccc12`, the EC50 was above 646 µM and the IC50 came to 617 µM. As for `C[C@@H]1C[C@H]2[C@@H]3CCC4=CC(=O)C=C[C@]4(C)[C@@]3(F)[C@@H](O)C[C@]2(C)[C@H]1O`, the outcome was inactive. For `COc1ccc(-c2cc(=O)c3c(O)cc(C)cc3o2)cc1OC`, the EC50 is above 200 µM and the IC50 is above 200 µM. For `COc1c(Cl)cc(Cc2cc(C(=CCC[C@H]3CC[C@@]4(C)[C@@H](CC[C@@H]5[C@@H]4CC[C@]4(C)[C@@H](C(C)CCCC(C)C)CC[C@@H]54)C3)c3cc(Cc4cc(Cl)c(OC)c(C(=O)O)c4)c(OC)c(C(=O)O)c3)cc(C(=O)O)c2OC)cc1C(=O)O` (stereo partly drawn), the concentration giving a half-maximal response (EC50) was 16.2 µM and the IC50 came to 107 µM. Take `COC(=O)c1cc(C(=O)OC)c(C/C(=N/NC(=O)C[N+](C)(C)C)C(=O)Nc2cccc(C(F)(F)F)c2)nc1C/C(=N/NC(=O)C[N+](C)(C)C)C(=O)Nc1cccc(C(F)(F)F)c1`: the EC50 is above 200 µM and the IC50 came out at 105 µM. The like results for `CN1C(=O)c2ccccc2OC12C=Cc1ccc(O)cc1O2` (stereo not drawn) were, in that order, above 132 µM and 45.7 µM. As for `CSc1nc(NC2OC(COC(C)=O)C(OC(C)=O)C(OC(C)=O)C2OC(C)=O)c(N=CC=Nc2c(NC3OC(COC(C)=O)C(OC(C)=O)C(OC(C)=O)C3OC(C)=O)nc(SC)[nH]c2=O)c(=O)[nH]1` (stereo not drawn), the result was inactive.

As for `C=CN(c1ccccc1)c1nc(=O)[nH]c(=O)[nH]1`, the EC50 is above 200 µM and the IC50 was above 200 µM. `COc1cc2c(cc1O)[C@H]1COc3ccccc3[C@H]1O2`: the EC50 is above 93.3 µM and the IC50 is 4.9 µM. The like results for `CCOC(=O)c1[nH]n(-c2ccccc2)c(=O)c1/C=N/C(=S)Nc1ccccc1` were, in that order, above 200 µM and 51.3 µM. Turning to `CCOC(=O)[C@@]1(C)CC(O)C(=O)N1C` (stereo partly drawn), the result was inactive. In the case of `CC(=N)C(C#N)C(=S)S` (stereo not drawn), the EC50 is above 537 µM and the IC50 is 27.5 µM. As for `CC(=O)OCC1OC(N2C(c3ccccc3)=CC(c3cccs3)C(C#N)=C2S)C(OC(C)=O)C(OC(C)=O)C1OC(C)=O` (stereo not drawn), the EC50 was 81.3 µM and the half-maximal inhibitory concentration (IC50) was above 200 µM.

For `O=C(O)c1cccc(SS(=O)(=O)c2cccc(C(=O)O)c2)c1`, the EC50 was 27.5 µM and the IC50 was found to be 162 µM.

As for `O=C(Nc1ccc(Cl)cc1Cl)C1C(=O)OC2(CCCCC2)OC1=O`, the EC50 is above 200 µM and the IC50 came to 13.8 µM.

Take `COC(=O)C(=O)c1c2ccccc2n2ccc3c4ccccc4[nH]c3c12`: the EC50 is above 200 µM and the IC50 was found to be 83.2 µM. Consider `COC(=O)c1cc(C(=CCCBr)c2cc(Cl)c(OC)c(C(=O)OC)c2)cc(Cl)c1OC`, for which the half-maximal effective concentration (EC50) was 16.6 µM and the IC50 is 21.9 µM.

For `Cc1ccc(S(=O)S(=O)c2ccc(C)cc2)cc1` (stereo not drawn), the outcome was inactive. Take `CCCCCCOCC(=O)O`: the EC50 was above 200 µM and the IC50 is above 200 µM.

Regarding `CNn1c(C)n[nH]c1=O`, the EC50 was above 200 µM and the 50% inhibitory concentration (IC50) was above 200 µM. On to `c1ccc(N=c2nc(N3CCOCC3)ss2)cc1`, for which the outcome was inactive. `CCOP(=O)(Nc1ccc(-c2ccccc2)cc1)OCC`: the EC50 was above 200 µM and the IC50 is 52.5 µM. In the case of `O=[N+]([O-])c1ccc(C(Cl)C(Cl)c2ccc(C(Cl)C(Cl)c3ccc([N+](=O)[O-])cc3[N+](=O)[O-])cc2)c([N+](=O)[O-])c1` (stereo not drawn), the EC50 is above 12 µM and the concentration for half-maximal inhibition (IC50) was found to be 5.13 µM. `CN(C)CCNC(=O)c1cc([N+](=O)[O-])ccn1`: the EC50 was above 200 µM and the IC50 stood at 95.5 µM. With `CC(O)C(N=Cc1ccccc1[O-])C(=O)[O-].CC(O)C(N=Cc1ccccc1[O-])C(=O)[O-].[Co+2]` (stereo not drawn), the EC50 is above 363 µM and the IC50 worked out at 64.6 µM.

As for `CCOC(=O)/C=C1\CONC(c2ccc(OC)cc2)=N1`, the EC50 is above 19.1 µM and the IC50 is above 19.1 µM. Turning to `Nc1nc(Nc2ccc(Cl)c(Cl)c2)nc2nc[nH]c12`, the EC50 is above 200 µM and the IC50 turned out to be 20.9 µM. The like results for `COc1cc(-c2oc3ccccc3c(=O)c2O)cc(OC)c1OC` were, in that order, above 200 µM and 79.4 µM. As to `COc1cc2c(cc1OC)NCc1ccccc1NCc1cc(OC)c(OC)cc1NCc1ccccc1NC2`, the EC50 was above 200 µM and the IC50 stood at 107 µM. For `CC12CCC(=O)N1c1cc([N+](=O)[O-])ccc1N2` (stereo not drawn), the outcome was inactive. Turning to `CC12O[C@H](c3ccccc3)[C@H](c3ccccc3)N1C(=O)C1(C(=O)OCc3ccccc3)CC12` (stereo partly drawn), the EC50 is above 22.9 µM and the IC50 was above 22.9 µM. Take `O=C(O)C1C2c3ccccc3C(O)C1(C(=O)O)c1ccccc12` (stereo not drawn): the EC50 was above 407 µM and the IC50 was above 407 µM. Turning to `Cc1nn2c(C(=O)O)nnc2s1`, the EC50 was above 200 µM and the half-maximal inhibitory concentration (IC50) is above 200 µM. Regarding `N#CC(/C=C/c1ccccc1)Nc1ccccc1N` (stereo not drawn), the EC50 is above 28.8 µM and the IC50 was above 28.8 µM.

For `CCN(CC)C(=O)CCCCCCCCC1CO1` (stereo not drawn), the EC50 is above 200 µM and the IC50 was 115 µM. The like results for `O=C1NC(c2ccccc2)C1N(Cc1ccccc1)Cc1ccccc1` (stereo not drawn) were, in that order, above 200 µM and above 200 µM. With `CC1(C)N=C(/C=N/O)C(C)(C)N1O`, the EC50 was above 200 µM and the IC50 was above 200 µM. For the compound `NS(=O)(=O)c1nnc(NC(=O)c2ccccc2)s1`, the EC50 is above 200 µM and the IC50 was above 200 µM. On to `CCCCCCCCCC1(N=[N+]=[N-])C(=O)c2ccccc2N(C)C1=O` (stereo not drawn), for which the EC50 was above 200 µM and the IC50 amounted to 33.9 µM. Take `CC(=O)OCCn1c(Cc2ccc(Cl)cc2)nn(C(C)=O)c1=O`: the EC50 was above 200 µM and the IC50 is above 200 µM.

Consider `Cc1c(NC(=O)CCl)c(=O)oc2c(C)c3occc(=O)c3cc12`, for which the EC50 is above 40.7 µM and the IC50 came out at 0.204 µM. `CCOC(=O)Cn1c(C)nc2nn(Cc3ccccc3)cc2c1=O`: the EC50 was above 200 µM and the IC50 was above 200 µM.

Consider `CC(C)CN1CC(=O)N2CCCN2C(=O)C1`, for which the EC50 was above 407 µM and the IC50 was above 407 µM. Take `COC(=O)C(=O)C(C(=O)C(=O)Nc1ccc(OC)cc1[N+](=O)[O-])c1nc2ccc([N+](=O)[O-])cc2[nH]c1=O` (stereo not drawn): the EC50 was above 182 µM and the IC50 was 170 µM. Regarding `O=C(O)C1(Cl)C2(Cl)C(Cl)=CC3(Cl)C(Cl)(C(=O)O)C2(Cl)C31Cl` (stereo not drawn), the EC50 was above 200 µM and the 50% inhibitory concentration (IC50) was above 200 µM. Take `Cn1c(COc2ccc(/C=N/NC(=O)CCC(=O)N/N=C/c3ccc(OCc4c[n+]5ccccc5n4C)cc3)cc2)c[n+]2ccccc12`: the EC50 was 13.5 µM and the IC50 came out at 19.1 µM. For `O=S(=O)(O)CCCO` the same measures were above 200 µM and above 200 µM. In the case of `C#CCNC(=O)NC(CCCCNC(=O)OCc1ccccc1)C(=O)OCc1ccccc1` (stereo not drawn), the EC50 is above 57.5 µM and the half-inhibitory concentration (IC50) turned out to be 42.7 µM. Consider `CCOC(=O)CN1C(=O)Cc2ccccc21`, for which the EC50 is above 200 µM and the IC50 was found to be 97.7 µM. The like results for `CC(C)=CCC/C(C)=C/COC(C)(C)C1=CCC(C)CC1` (stereo not drawn) (tested in a mixture with another compound) were, in that order, above 200 µM and above 200 µM. The like results for `CCCCCCCCCCCc1c2[nH]c3cc(C)ccc3oc2cc2[nH]c3cc(C)ccc3oc12` were, in that order, above 2 µM and above 2 µM. Consider `CN(CCO)c1nc(=O)c2c(n1C1OC(CO)C(O)C(O)C1O)CCCC2` (stereo not drawn), for which the EC50 is above 339 µM and the IC50 is above 339 µM. Turning to `Cc1cc(Cc2cc(C)cc(S(=O)(=O)O)c2O)c(O)c(S(=O)(=O)O)c1`, the EC50 was 209 µM and the IC50 stood at 646 µM. `C[P+](Cc1ccccc1)(c1ccccc1)c1ccccc1`: the EC50 is 0.0631 µM and the IC50 turned out to be 14.5 µM. Compound `O=c1ccc2c(-c3ccccc3O)c3ccc(O)cc3oc-2c1` showed an EC50 above 95.5 µM and an IC50 of 17.4 µM.
